test system: HCT116 MTAP-deleted cell lines; test: Cell viability assay (CellTiter-Glo, 7 days), HCT116 MTAP-deleted; type: cell-based; conditions: Homo sapiens, HCT-116; cell viability assay, HCT116 MTAP-deleted; class symbols; read-out: CC50
Procedure, shortened: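 Each PRMT5 inhibitor was tested as a dose response alongside tool compounds on the same plate. Incubation ran 7 days at 37 °C under 5% CO2, after which CellTiter-Glo luminescence was recorded and CC50 calculated.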

SMILES	CC50 [µM]
Cc1ncc2c(N)nc3cnc(C(=O)N4CC[C@H]5C[C@@H]4c4ccc(C(F)(F)F)cc4O5)cc3n12 [Ff-369, (4-amino-1-methylimidazo[1,5-a]pyrido[3,4-e]pyrazin-8-yl)((2S,6R)-9-(trifluoromethyl)-3,4-dihydro-2H-2,6-methanobenzo[b][1,5]oxazocin-5(6H)-yl)methanone]	< 0.1
Nc1nc2cc(Cl)c(C(=O)N3CC[C@H]4C[C@@H]3c3ccc(C(F)(F)F)cc3O4)cc2n2cncc12 [Ff-370, (4-amino-7-chloroimidazo[1,5-a]quinoxalin-8-yl)((2S,6R)-9-(trifluoromethyl)-3,4-dihydro-2H-2,6-methanobenzo[b][1,5]oxazocin-5(6H)-yl)methanone]	< 0.1
Nc1nc2cc(Cl)c(C(=O)N3CC[C@H]4C[C@@H]3c3ccc(C(F)(F)F)nc3O4)cc2n2cncc12 [Ff-371, (4-amino-7-chloroimidazo[1,5-a]quinoxalin-8-yl)((2S,6R)-9-(trifluoromethyl)-3,4-dihydro-2H-2,6-methanopyrido[2,3-b][1,5]oxazocin-5(6H)-yl)methanone]	< 0.1
Cc1ncn2c1c(N)nc1cc(F)c(C(=O)N3C[C@H](C)C[C@@H]4Oc5nc(C(F)(F)F)ccc5[C@@H]43)cc12 [Ff-374, (4-amino-7-fluoro-3-methylimidazo[1,5-a]quinoxalin-8-yl)((3R,4aS,9bS)-3-methyl-7-(trifluoromethyl)-3,4,4a,9b-tetrahydrofuro[2,3-b:4,5-b′]dipyridin-1(2H)-yl)methanone]	< 0.1
C[C@@H]1C[C@@H]2Oc3nc(C(F)(F)F)ccc3[C@@H]2N(C(=O)c2cc3c(cc2F)nc(N)c2cncn23)C1 [Ff-375, (4-amino-7-fluoroimidazo[1,5-a]quinoxalin-8-yl)((3R,4aS,9bS)-3-methyl-7-(trifluoromethyl)-3,4,4a,9b-tetrahydrofuro[2,3-b:4,5-b′]dipyridin-1(2H)-yl)methanone]	< 0.1
Cc1ncc2c(N)nc3cnc(C(=O)N4CCC[C@@H]5Oc6cc(OC(F)(F)F)c(F)cc6[C@@H]54)cc3n12 [Ff-376, (4-amino-1-methylimidazo[1,5-a]pyrido[3,4-e]pyrazin-8-yl)((4aS,9bS)-8-fluoro-7-(trifluoromethoxy)-3,4,4a,9b-tetrahydrobenzofuro[3,2-b]pyridin-1(2H)-yl)methanone]	< 0.1
Nc1nc2ccc(C(=O)N3CCC[C@@H]4Oc5cc(OC(F)(F)F)c(F)cc5[C@@H]43)cc2n2cncc12 [Ff-377, (4-aminoimidazo[1,5-a]quinoxalin-8-yl)((4aS,9bS)-8-fluoro-7-(trifluoromethoxy)-3,4,4a,9b-tetrahydrobenzofuro[3,2-b]pyridin-1(2H)-yl)methanone]	< 0.1
CC1(C)CN(C(=O)c2cc3c(cc2F)nc(N)c2cncn23)[C@H]2c3ccc(C(F)(F)F)cc3C[C@H]2O1 [Ff-380, (4-amino-7-fluoroimidazo[1,5-a]quinoxalin-8-yl)((4aS,9aR)-2,2-dimethyl-7-(trifluoromethyl)-2,3,9,9a-tetrahydroindeno[2,1-b][1,4]oxazin-4(4aH)-yl)methanone]	< 0.1
Nc1nc2ccc(C(=O)N3CCC[C@@H]4Oc5c(ccc(OC(F)(F)F)c5F)[C@@H]43)cc2n2cncc12 [Ff-381, (4-aminoimidazo[1,5-a]quinoxalin-8-yl)((4aS,9bS)-6-fluoro-7-(trifluoromethoxy)-3,4,4a,9b-tetrahydrobenzofuro[3,2-b]pyridin-1(2H)-yl)methanone]	< 0.1

same assay, conditions: Homo sapiens, HCT-116; cell viability, HCT116 MTAP-deleted; class symbols; read-out: CC50

SMILES	CC50 [µM]
CN(C(=O)c1cc2c(cn1)nc(N)c1cncn12)[C@@H]1COc2cc(C(F)(F)F)ccc21 [Ff-342, (S)-4-amino-N-methyl-N-(6-(trifluoromethyl)-2,3-dihydrobenzofuran-3-yl)imidazo[1,5-a]pyrido[3,4-e]pyrazine-8-carboxamide]	< 0.1
Nc1nc2cc(F)c(C(=O)N3CCC[C@@H]4Oc5c(ccc(OC(F)(F)F)c5F)[C@@H]43)cc2n2cncc12 [Ff-343, (4-amino-7-fluoroimidazo[1,5-a]quinoxalin-8-yl)((4aS,9bS)-6-fluoro-7-(trifluoromethoxy)-3,4,4a,9b-tetrahydrobenzofuro[3,2-b]pyridin-1(2H)-yl)methanone]	< 0.1
Cc1ncc2c(N)nc3cnc(C(=O)N4CCC[C@@H]5Oc6c(ccc(OC(F)(F)F)c6F)[C@@H]54)cc3n12 [Ff-347, (4-amino-1-methylimidazo[1,5-a]pyrido[3,4-e]pyrazin-8-yl)((4aS,9bS)-6-fluoro-7-(trifluoromethoxy)-3,4,4a,9b-tetrahydrobenzofuro[3,2-b]pyridin-1(2H)-yl)methanone]	< 0.1
C[C@@H]1C[C@@H]2Oc3c(ccc(C(F)(F)F)c3F)[C@@H]2N(C(=O)c2cc3c(cn2)nc(N)c2cncn23)C1 [Ff-348, (4-aminoimidazo[1,5-a]pyrido[3,4-e]pyrazin-8-yl)((3R,4aS,9bS)-6-fluoro-3-methyl-7-(trifluoromethyl)-3,4,4a,9b-tetrahydrobenzofuro[3,2-b]pyridin-1(2H)-yl)methanone]	< 0.1
N#Cc1cc2nc(N)c3cncn3c2cc1C(=O)N1CCC[C@@H]2Oc3cc(OC(F)(F)F)ccc3[C@@H]21 [Ff-349, 4-amino-8-((4aS,9bS)-7-(trifluoromethoxy)-1,2,3,4,4a,9b-hexahydrobenzofuro[3,2-b]pyridine-1-carbonyl)imidazo[1,5-a]quinoxaline-7-carbonitrile]	< 0.1
Cc1ncc2c(N)nc3ccc(C(=O)N(C)[C@@H]4COc5cc(C(F)(F)F)c(F)cc54)cc3n12 [Ff-352, (S)-4-amino-N-(5-fluoro-6-(trifluoromethyl)-2,3-dihydrobenzofuran-3-yl)-N,1-dimethylimidazo[1,5-a]quinoxaline-8-carboxamide]	< 0.1
CN(C(=O)c1ccc2nc(N)c3cncn3c2c1)[C@@H]1COc2cc(C(F)(F)F)c(F)cc21 [Ff-353, (S)-4-amino-N-(5-fluoro-6-(trifluoromethyl)-2,3-dihydrobenzofuran-3-yl)-N-methylimidazo[1,5-a]quinoxaline-8-carboxamide]	< 0.1
CN(C(=O)c1cc2c(cc1F)nc(N)c1cncn12)[C@@H]1COc2c1ccc(C(F)(F)F)c2F [Ff-354, (S)-4-amino-7-fluoro-N-(7-fluoro-6-(trifluoromethyl)-2,3-dihydrobenzofuran-3-yl)-N-methylimidazo[1,5-a]quinoxaline-8-carboxamide]	< 0.1
Cc1ncc2c(N)nc3ccc(C(=O)N(C)[C@@H]4COc5c4ccc(C(F)(F)F)c5F)cc3n12 [Ff-355, (S)-4-amino-N-(7-fluoro-6-(trifluoromethyl)-2,3-dihydrobenzofuran-3-yl)-N,1-dimethylimidazo[1,5-a]quinoxaline-8-carboxamide]	0.1 to 1
CN(C(=O)c1ccc2nc(N)c3cncn3c2c1)[C@@H]1COc2c1ccc(C(F)(F)F)c2F [Ff-356, (S)-4-amino-N-(7-fluoro-6-(trifluoromethyl)-2,3-dihydrobenzofuran-3-yl)-N-methylimidazo[1,5-a]quinoxaline-8-carboxamide]	< 0.1
Nc1nc2cc(F)c(C(=O)N3CCC[C@@H]4OCc5nc(C(F)(F)F)ccc5[C@@H]43)cc2n2cncc12 [Ff-357, (4-amino-7-fluoroimidazo[1,5-a]quinoxalin-8-yl)((4aS,10bS)-8-(trifluoromethyl)-2,3,4,4a,6,10b-hexahydro-1H-pyrano[3,2-b:5,4-b′]dipyridin-1-yl)methanone]	< 0.1
Cc1ncn2c1c(N)nc1cc(F)c(C(=O)N3CCC[C@@H]4OCc5nc(C(F)(F)F)ccc5[C@@H]43)cc12 [Ff-358, (4-amino-7-fluoro-3-methylimidazo[1,5-a]quinoxalin-8-yl)((4aS,10bS)-8-(trifluoromethyl)-2,3,4,4a,6,10b-hexahydro-1H-pyrano[3,2-b:5,4-b′]dipyridin-1-yl)methanone]	< 0.1
Cc1ncc2c(N)nc3cc(F)c(C(=O)N4CCC[C@@H]5OCc6nc(C(F)(F)F)ccc6[C@@H]54)cc3n12 [Ff-359, (4-amino-7-fluoro-1-methylimidazo[1,5-a]quinoxalin-8-yl)((4aS,10bS)-8-(trifluoromethyl)-2,3,4,4a,6,10b-hexahydro-1H-pyrano[3,2-b:5,4-b′]dipyridin-1-yl)methanone]	< 0.1
Cc1ncn2c1c(N)nc1cc(Cl)c(C(=O)N3CCC[C@@H]4OCc5nc(C(F)(F)F)ccc5[C@@H]43)cc12 [Ff-360, (4-amino-7-chloro-3-methylimidazo[1,5-a]quinoxalin-8-yl)((4aS,10bS)-8-(trifluoromethyl)-2,3,4,4a,6,10b-hexahydro-1H-pyrano[3,2-b:5,4-b′]dipyridin-1-yl)methanone]	< 0.1
Nc1nc2cc(F)c(C(=O)N3CCC[C@@H]4Oc5nc(C(F)(F)F)ccc5[C@@H]43)cc2n2cncc12 [Ff-361, (4-amino-7-fluoroimidazo[1,5-a]quinoxalin-8-yl)((4aS,9bS)-7-(trifluoromethyl)-3,4,4a,9b-tetrahydrofuro[2,3-b:4,5-b′]dipyridin-1(2H)-yl)methanone]	< 0.1
Cc1ncn2c1c(N)nc1cc(F)c(C(=O)N3CCC[C@@H]4Oc5nc(C(F)(F)F)ccc5[C@@H]43)cc12 [Ff-362, (4-amino-7-fluoro-3-methylimidazo[1,5-a]quinoxalin-8-yl)((4aS,9bS)-7-(trifluoromethyl)-3,4,4a,9b-tetrahydrofuro[2,3-b:4,5-b′]dipyridin-1(2H)-yl)methanone]	< 0.1
Cc1ncn2c1c(N)nc1cc(Cl)c(C(=O)N3CCC[C@@H]4Oc5nc(C(F)(F)F)ccc5[C@@H]43)cc12 [Ff-364, (4-amino-7-chloro-3-methylimidazo[1,5-a]quinoxalin-8-yl)((4aS,9bS)-7-(trifluoromethyl)-3,4,4a,9b-tetrahydrofuro[2,3-b:4,5-b′]dipyridin-1(2H)-yl)methanone]	< 0.1
Nc1nc2cc(F)c(C(=O)N3CC[C@H]4C[C@@H]3c3ccc(C(F)(F)F)cc3O4)cc2n2cncc12 [Ff-365, (4-amino-7-fluoroimidazo[1,5-a]quinoxalin-8-yl)((2S,6R)-9-(trifluoromethyl)-3,4-dihydro-2H-2,6-methanobenzo[b][1,5]oxazocin-5(6H)-yl)methanone]	< 0.1

Source: US12448388B2, “PRMT5 inhibitors and uses thereof” (Gilead Sciences, Inc., priority 2023, dated 2025)
